{"source": "patent US4521339A", "about": "“Ansatrienols” (Nisshin Flour Milling Co., Ltd., priority 1981, dated 1985)", "key": {"[1]": {"system": "L-5178Y lymphoma cells", "assay": "Anti-tumor activity (in vitro) against L-5178Y lymphoma cells", "type": "cell-based", "conditions": "statement in words", "procedure": "The cell growth was observed by a dilution method using an Eagle-NEM medium (Nissui) supplemented with 10% horse serum and 100 mg/l asparagine and cultivated at 37° C. for 120 hours. The T-23-I substance in ethanol solution was added to an assay system.\nThe cell growth was observed by a dilution method using an Eagle-NEM medium (Nissui) supplemented with 10% horse serum and 100 mg/l asparagine and cultivated at 37° C. for 120 hours. The T-23-II substance in ethanol solution was added to an assay system."}, "[2]": {"assay": "Acute toxicity", "conditions": "mouse, in vivo, ip"}, "[3]": {"system": "mouse leukemia P-388", "assay": "Anti-tumor activity against mouse leukemia P-388 (life span of mice)", "type": "in vivo", "conditions": "CDF1 mice", "procedure": "To six CDF1 male mice (20±1 g) of one group, 10^6 ascites tumor P-388 cells were transplanted intraperitoneally. The test material was administered first 24 hours and then 120 hours after transplantation. The dose of the test material suspended in gum arabic was 0.2 ml for each time. Increased life span was expressed in terms of % of the life span of the control group (administered with a gum arabic suspension).\nTo six CDF1 male mice (20±1 g) of one group, 10^6 ascites tumor P-388 cells were transplanted intraperitoneally. The test material was administered first 24 hours after transplantation of then six times every 24 hours. The dose of the test material suspended in gum arabic was 0.2 ml for each time. Increased life span was expressed in terms of % of the life span of the control group (administered with a gum arabic suspension)."}, "[4]": {"assay": "Solubility in solvents", "conditions": "for Solubility in solvents: organic solvents; for Soluble in (continued line of the solubility entry): organic solvents in which the substance is soluble, continuation line"}, "[5]": {"system": "Saccharomyces cerevisiae (IFO 0304)", "assay": "Antimicrobial activity (MIC, dilution method)", "type": "cell-based", "conditions": "IFO0304, 30° C., 72 hours, read-out: MIC (minimum inhibitory concentration)", "procedure": "(§1) The MIC (minimum inhibitory concentration) value of the T-23-I substance was determined by cultivation of a microorganism in a medium containing 1.0% glucose and 0.2% malt extract at 30° C. for 72 hours by a dilution method.\n(§2) The MIC (minimum inhibitory concentration) value of the T-23-II substance was determined by cultivation of a microorganism in a medium containing 1.0% glucose and 0.2% malt extract at 30° C. for 72 hours by a dilution method."}, "[6]": {"system": "Saccharomyces rouxii (IFO 0505)", "assay": "Antimicrobial activity (MIC, dilution method)", "type": "cell-based", "conditions": "Zygosaccharomyces rouxii, IFO0505, 30° C., 72 hours, read-out: MIC (minimum inhibitory concentration)", "procedure": "as §1, §2"}, "[7]": {"system": "Mucor pusillus (IAM 6122)", "assay": "Antimicrobial activity (MIC, dilution method)", "type": "cell-based", "conditions": "Rhizomucor pusillus, IAM6122, 30° C., 72 hours, read-out: MIC (minimum inhibitory concentration)", "procedure": "as §1, §2"}, "[8]": {"system": "Aspergillus japonicus (IAM 2016)", "assay": "Antimicrobial activity (MIC, dilution method)", "type": "cell-based", "conditions": "IAM2016, 30° C., 72 hours, read-out: MIC (minimum inhibitory concentration)", "procedure": "as §1, §2"}, "[9]": {"system": "Candida utilis (IFO 0396)", "assay": "Antimicrobial activity (MIC, dilution method)", "type": "cell-based", "conditions": "Williopsis jadinii, IFO0396, 30° C., 72 hours, read-out: MIC (minimum inhibitory concentration)", "procedure": "as §1, §2"}, "[10]": {"system": "Penicillium chrysogenum (IAM 7106)", "assay": "Antimicrobial activity (MIC, dilution method)", "type": "cell-based", "conditions": "IAM7106, 30° C., 72 hours, read-out: MIC (minimum inhibitory concentration)", "procedure": "as §1, §2"}, "[11]": {"system": "mouse sarcoma 180", "assay": "Anti-tumor activity against mouse sarcoma 180 (life span of mice)", "type": "in vivo", "conditions": "ICR mice", "procedure": "To six ICR male mice (25±1 g) of one group, 10^6 sarcoma 180 ascites tumor cells were transplanted intraperitoneally. The test material was administered first three hours after transplantation and then four times every 24 hours. The dose of the test material (T-23-II substance) suspended in gum arabic was 0.2 ml for each time. Increased life span was expressed in terms of % of the life span of the control group (administered with a gum arabic suspension)."}, "[12]": {"system": "several types of tumor cells", "assay": "Growth inhibition of several types of tumor cells", "type": "cell-based", "conditions": "statement in words"}}, "note": "Entries after “also recorded” stand apart in the source; their conditions may differ."}
{"smiles": "COC1C=CC=CC=CCC(OC(=O)[C@@H](C)NC(=O)C2CCCCC2)C(C)C(O)C(C)=CCCc2cc(O)cc(c2O)NC(=O)C1", "note": "(stereo partly shown) [T-23-II substance]", "values": [{"measurement": "inhibition of the growth of L-5178Y lymphoma cells", "setting": "[1]", "value": "effective to inhibit the growth of L-5178Y lymphoma cells"}, {"measurement": "LD50", "setting": "[2]", "value": 85.5, "unit": "mg/kg"}, {"measurement": "Increased life span T/C", "setting": "[3]; 1.25 mg/kg/day × 6 times", "value": 130.0, "unit": "%"}, {"measurement": "Increased life span T/C", "setting": "[3]; 2.5 mg/kg/day × 6 times", "value": 109.9, "unit": "%"}, {"measurement": "Increased life span T/C", "setting": "[3]; 5 mg/kg/day × 6 times", "value": 127.1, "unit": "%"}, {"measurement": "Increased life span T/C", "setting": "[3]; 10 mg/kg/day × 6 times", "value": 120.2, "unit": "%"}, {"measurement": "Increased life span T/C", "setting": "[3]; 20 mg/kg/day × 6 times", "value": 135.7, "unit": "%"}, {"measurement": "Solubility in solvents", "setting": "[4]", "value": "soluble in higher alcohols, acetone, chloroform, benzene and ethylacetate; also recorded: Soluble in chloroform, methanol, ethanol; also recorded: Sparingly soluble in benzene and ether; also recorded: Insoluble in water, petroleum ether and hexane"}, {"measurement": "Soluble in (continued line of the solubility entry)", "setting": "[4]", "value": "acetone and ethyl acetate"}, {"measurement": "Solubility in water", "setting": "[4]", "value": "Insoluble in water"}, {"measurement": "MIC", "setting": "[5]", "value": 4, "unit": "µg/mL"}, {"measurement": "MIC", "setting": "[6]", "value": 4, "unit": "µg/mL"}, {"measurement": "MIC", "setting": "[7]", "value": 12.5, "unit": "µg/mL"}, {"measurement": "MIC", "setting": "[8]", "value": 12.5, "unit": "µg/mL"}, {"measurement": "MIC", "setting": "[9]", "value": 4, "unit": "µg/mL"}, {"measurement": "MIC", "setting": "[10]", "value": 12.5, "unit": "µg/mL"}, {"measurement": "Increased life span T/C", "setting": "[11]; 0.7 mg/kg/day × 4 times", "value": 109.6, "unit": "%"}, {"measurement": "Increased life span T/C", "setting": "[11]; 2.2 mg/kg/day × 4 times", "value": 95.6, "unit": "%"}, {"measurement": "Increased life span T/C", "setting": "[11]; 6.6 mg/kg/day × 4 times", "value": 115.0, "unit": "%"}, {"measurement": "Increased life span T/C", "setting": "[11]; 20 mg/kg/day × 4 times", "value": 138.7, "unit": "%"}, {"measurement": "inhibition of the growth of several types of tumor cells", "setting": "[12]", "value": "some significant effect to inhibit the growth of several types of tumor cells"}]}
{"smiles": "COC1C=CC=CC=CCC(OC(=O)[C@@H](C)NC(=O)C2CCCCC2)C(C)C(O)C(C)=CCCC2=CC(=O)C=C(NC(=O)C1)C2=O", "note": "(stereo partly shown) [T-23-I substance]", "values": [{"measurement": "inhibition of the growth of L-5178Y lymphoma cells", "setting": "[1]", "value": "effective to inhibit the growth of L-5178Y lymphoma cells"}, {"measurement": "LD50", "setting": "[2]", "value": 55.9, "unit": "mg/kg"}, {"measurement": "Increased life span T/C", "setting": "[3]; 0.75 mg/kg/day × 2 times", "value": 105.7, "unit": "%"}, {"measurement": "Increased life span T/C", "setting": "[3]; 1.5 mg/kg/day × 2 times", "value": 107.3, "unit": "%"}, {"measurement": "Increased life span T/C", "setting": "[3]; 3 mg/kg/day × 2 times", "value": 105.7, "unit": "%"}, {"measurement": "Increased life span T/C", "setting": "[3]; 6 mg/kg/day × 2 times", "value": 120.2, "unit": "%"}, {"measurement": "Increased life span T/C", "setting": "[3]; 12 mg/kg/day × 2 times", "value": 123.3, "unit": "%"}, {"measurement": "Increased life span T/C", "setting": "[3]; 24 mg/kg/day × 2 times", "value": 56.0, "unit": "%"}, {"measurement": "Solubility in solvents", "setting": "[4]", "value": "soluble in higher alcohols, acetone, chloroform, benzene and ethylacetate; also recorded: Soluble in methanol, ethanol, acetone; also recorded: Sparingly soluble in benzene and ether; also recorded: Insoluble in water, petroleum ether and hexane"}, {"measurement": "Soluble in (continued line of the solubility entry)", "setting": "[4]", "value": "chloroform and ethyl acetate"}, {"measurement": "Solubility in water", "setting": "[4]", "value": "Insoluble in water"}, {"measurement": "MIC", "setting": "[5]", "value": 4, "unit": "µg/mL"}, {"measurement": "MIC", "setting": "[6]", "value": 4, "unit": "µg/mL"}, {"measurement": "MIC", "setting": "[7]", "value": 12.5, "unit": "µg/mL"}, {"measurement": "MIC", "setting": "[8]", "value": 12.5, "unit": "µg/mL"}, {"measurement": "MIC", "setting": "[9]", "value": 4, "unit": "µg/mL"}, {"measurement": "MIC", "setting": "[10]", "value": 8, "unit": "µg/mL"}, {"measurement": "inhibition of the growth of several types of tumor cells", "setting": "[12]", "value": "some significant effect to inhibit the growth of several types of tumor cells"}]}
{"smiles": "COC1C=CC=CC=CCC(O)C(C)C(O)C(C)=CCCc2cc(O)cc(c2O)NC(=O)C1", "note": "(stereo not shown) [T-23-IV substance]", "values": [{"measurement": "LD50", "setting": "[2]", "value": "~280", "unit": "mg/kg"}, {"measurement": "Solubility in solvents", "setting": "[4]", "value": "Soluble in chloroform, ethyl acetate, methanol; also recorded: Sparingly soluble in benzene and toluene; also recorded: Insoluble in petroleum ether and water"}, {"measurement": "Soluble in (continued line of the solubility entry)", "setting": "[4]", "value": "ethanol, acetone and acetonitrile"}, {"measurement": "Solubility in water", "setting": "[4]", "value": "Insoluble"}, {"measurement": "inhibition of the growth of several types of tumor cells", "setting": "[12]", "value": "some significant effect to inhibit the growth of several types of tumor cells"}]}
{"smiles": "COC1C=CC=CC=CCC(O)C(C)C(O)C(C)=CCCC2=CC(=O)C=C(NC(=O)C1)C2=O", "note": "(stereo not shown) [T-23-III substance]", "values": [{"measurement": "LD50", "setting": "[2]", "value": "~250", "unit": "mg/kg"}, {"measurement": "Solubility in solvents", "setting": "[4]", "value": "Soluble in chloroform, ethyl acetate, methanol; also recorded: Sparingly soluble in ethyl ether; also recorded: Insoluble in petroleum ether and water"}, {"measurement": "Soluble in (continued line of the solubility entry)", "setting": "[4]", "value": "toluene"}, {"measurement": "Solubility in water", "setting": "[4]", "value": "Insoluble"}, {"measurement": "inhibition of the growth of several types of tumor cells", "setting": "[12]", "value": "some significant effect to inhibit the growth of several types of tumor cells"}]}
